Assay results published in ChEMBL document CHEMBL1127655, “The stabilization of DNA topoisomerase II cleavable complex by mitonafide analogs” (Bioorg Med Chem Lett, 1994).

Columns and labels:
Assay type in all cases: nucleic-acid assay
Details in all cases: Bos taurus
Calf thymus DNA = assay: Calf thymus DNA binding affinity compared to ethidium bromide
Nucleic Acid [1] = assay: DNA binding affinity by a decrease in fluorescence of an ethidium bromide calf thymus DNA solution; (36%)
Nucleic Acid [2] = assay: DNA binding affinity by a decrease in fluorescence of an ethidium bromide calf thymus DNA solution; (33%)
Nucleic Acid [3] = assay: DNA binding affinity by a decrease in fluorescence of an ethidium bromide calf thymus DNA solution; (12%)
Nucleic Acid [4] = assay: DNA binding affinity by a decrease in fluorescence of an ethidium bromide calf thymus DNA solution; (39%)
Nucleic Acid [5] = assay: DNA binding affinity by a decrease in fluorescence of an ethidium bromide calf thymus DNA solution (0%)
Nucleic Acid [6] = assay: DNA binding affinity by a decrease in fluorescence of an ethidium bromide calf thymus DNA solution; (34%)
Nucleic Acid [7] = assay: DNA binding affinity by a decrease in fluorescence of an ethidium bromide calf thymus DNA solution; (10%)
Nucleic Acid [8] = assay: DNA binding affinity by a decrease in fluorescence of an ethidium bromide calf thymus DNA solution; (41%)
Nucleic Acid [9] = assay: DNA binding affinity by a decrease in fluorescence of an ethidium bromide calf thymus DNA solution; (25%)

Row | C50 (Calf thymus DNA) | SMILES | other results
1 | 100 µM | CCN(CC)CCN1C(=O)c2cccc3cccc(c23)C1=O | –
2 | – | CN(C)CCCN1C(=O)c2cccc3c([N+](=O)[O-])ccc(c23)C1=O | C50 (Nucleic Acid [1]): > 100 µM
3 | – | CN(C)CCN1C(=O)c2cccc3c([N+](=O)[O-])ccc(c23)C1=O | C50 (Nucleic Acid [2]): > 100 µM
4 | – | O=C1c2cccc3cccc(c23)C(=O)N1CCO | C50 (Nucleic Acid [3]): > 100 µM
5 | 19 µM | CNCCN1C(=O)c2cccc3c([N+](=O)[O-])ccc(c23)C1=O | –
6 | – | O=C1c2cccc3cc([N+](=O)[O-])cc(c23)C(=O)N1CCN1CCNCC1 | C50 (Nucleic Acid [4]): > 100 µM
7 | – | O=C1c2cccc3c([N+](=O)[O-])ccc(c23)C(=O)N1CCc1ccccn1 | C50 (Nucleic Acid [5]): > 100 µM
8 | – | O=C1c2cccc3c([N+](=O)[O-])ccc(c23)C(=O)N1CCO | C50 (Nucleic Acid [6]): > 100 µM
9 | 10 µM | O=C1c2cccc3cc([N+](=O)[O-])cc(c23)C(=O)N1CCN1CCCC1 | –
10 | 100 µM | CN(C)CCN1C(=O)c2cccc3cccc(c23)C1=O | –
11 | 14 µM | CNCCN1C(=O)c2cccc3cc([N+](=O)[O-])cc(c23)C1=O | –
12 | 35 µM | CCN(CC)CCN1C(=O)c2cccc3cc([N+](=O)[O-])cc(c23)C1=O | –
13 | – | O=C1c2cccc3cc([N+](=O)[O-])cc(c23)C(=O)N1CCc1ccccn1 | C50 (Nucleic Acid [7]): > 100 µM
14 | 11 µM | CN(C)CCN1C(=O)c2cccc3cc([N+](=O)[O-])cc(c23)C1=O | –
15 | 28 µM | CCN(CC)CCN1C(=O)c2cccc3c([N+](=O)[O-])ccc(c23)C1=O | –
16 | – | CNCCN1C(=O)c2cccc3cccc(c23)C1=O | C50 (Nucleic Acid [8]): > 100 µM
17 | 11 µM | O=C1c2cccc3c([N+](=O)[O-])ccc(c23)C(=O)N1CCN1CCCC1 | –
18 | 17 µM | NCCN1C(=O)c2cccc3c([N+](=O)[O-])ccc(c23)C1=O | –
19 | 50 µM | NCCN1C(=O)c2cccc3cccc(c23)C1=O | –
20 | 16 µM | CN(C)CCCN1C(=O)c2cccc3cc([N+](=O)[O-])cc(c23)C1=O | –
21 | – | O=C1c2cccc3cc([N+](=O)[O-])cc(c23)C(=O)N1CCO | C50 (Nucleic Acid [9]): > 100 µM
